Results reported in US6737383B1, “Herbicidal oxadiazolidines” (priority 1999, dated 2004).

What was measured:
[1] = test system: duck salad; assay: Test B flood test duck salad; type: in vivo, Heteranthera limosa
Method in brief: (§1)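 Plants were grown to the 2-leaf stage before treatment with test chemical, then held in a greenhouse for twelve to sixteen days. Injury was visually rated against untreated controls on a 0–10 scale, where 0 is no effect and 10 is complete control.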

[2] = test system: soybean; assay: Test B pre/postemergence soybean; type: in vivo, Glycine max
Method in brief: (§2)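 Response is a visual 0-to-10 score relative to untreated plants, where 0 means no effect and 10 means complete control, taken twelve to sixteen days after application. Treatments went onto soil at planting and onto foliage of 1- to 4-leaf plants, using a surfactant-containing non-phytotoxic solvent.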

[3] = test system: morningglory; assay: Test B pre/postemergence morningglory; type: in vivo, Ipomoea hederacea
Method in brief: as §2

[4] = test system: giant foxtail; assay: Test B pre/postemergence giant foxtail; type: in vivo, Setaria faberii
Method in brief: as §2

[5] = test system: wheat; assay: Test B pre/postemergence wheat; type: in vivo, Triticum aestivum
Method in brief: as §2

[6] = test system: crabgrass; assay: Test B pre/postemergence crabgrass; type: in vivo, Digitaria sanguinalis
Method in brief: as §2

[7] = test system: wild oat; assay: Test B pre/postemergence wild oat; type: in vivo, Avena fatua
Method in brief: as §2

[8] = test system: bedstraw; assay: Test B pre/postemergence bedstraw; type: in vivo, Galium aparine
Method in brief: as §2

[9] = test system: rice; assay: Test B flood test rice; type: in vivo, Oryza sativa
Method in brief: as §1

[10] = test system: cocklebur; assay: Test B pre/postemergence cocklebur; type: in vivo, Xanthium strumarium
Method in brief: as §2

[11] = test system: corn; assay: Test B pre/postemergence corn; type: in vivo, Zea mays
Method in brief: as §2

[12] = test system: velvetleaf; assay: Test B pre/postemergence velvetleaf; type: in vivo, Abutilon theophrasti
Method in brief: as §2

[13] = test system: smallflower flatsedge; assay: Test B flood test smallflower flatsedge; type: in vivo, Cyperus difformis
Method in brief: as §1

[14] = test system: rape; assay: Test B pre/postemergence rape; type: in vivo, Brassica napus
Method in brief: as §2

[15] = test system: pigweed; assay: Test B pre/postemergence pigweed; type: in vivo, Amaranthus retroflexus
Method in brief: as §2

[16] = test system: purple nutsedge; assay: Test B pre/postemergence purple nutsedge; type: in vivo, Cyperus rotundus
Method in brief: as §2

[17] = Postemergence, Rate 62 g/ha, scale 0 to 10, 0 is no effect, 10 is complete control
[18] = Rate 125 g/ha, Postemergence section (flood test species), scale 0 to 10, 0 no effect, 10 complete control
[19] = Rate 500 g/ha, listed under Postemergence (flood test species), scale 0 to 10, 0 no effect, 10 complete control
[20] = flood test, listed under Postemergence, Rate 250 g/ha, scale 0 to 10, 0 no effect, 10 complete control
[21] = Postemergence, Rate 250 g/ha, scale 0 to 10, 0 no effect, 10 complete control
[22] = Preemergence, Rate 62 g/ha, scale 0 to 10 (0 no effect, 10 complete control)
[23] = Preemergence, Rate 125 g/ha, scale 0 to 10 (0 no effect, 10 complete control)
[24] = Preemergence, Rate 250 g/ha, scale of 0 to 10 where 0 is no effect and 10 is complete control
[25] = Preemergence, Rate 500 g/ha, scale 0 (no effect) to 10 (complete control)
[26] = Rate 125 g/ha, Postemergence, scale 0 to 10, 0 no effect, 10 complete control
[27] = Rate 500 g/ha, Postemergence, scale 0 to 10, 0 no effect, 10 complete control

CN(C(=O)n1oc(=O)n(Cc2cccs2)c1=O)c1ccccc1 [Compound 83]
Ducksalad plant response rating [1, 17]: 0 | Ducksalad plant response rating [1, 18]: 0 | Ducksalad plant response rating [1, 19]: 0 | Ducksalad plant response rating [1, 20]: 0 | Soybean plant response rating [2, 17]: 0 | Soybean plant response rating [2, 21]: 0 | Soybean plant response rating [2, 22]: 0 | Plant response rating, Soybean [2, 23]: 0 | Plant response rating, Soybean [2, 24]: 0 | Soybean plant response rating [2, 25]: 0 | Soybean plant response rating [2, 26]: 0 | Soybean plant response rating [2, 27]: 0 | Morningglory plant response rating [3, 17]: 0 | Morningglory plant response rating [3, 21]: 0 | Morningglory plant response rating [3, 22]: 0 | Plant response rating, Morningglory [3, 23]: 0 | Plant response rating, Morningglory [3, 24]: 0 | Morningglory plant response rating [3, 25]: 0 | Morningglory plant response rating [3, 26]: 0 | Morningglory plant response rating [3, 27]: 0 | Giant foxtail plant response rating [4, 17]: 0 | Giant foxtail plant response rating [4, 21]: 0 | Giant foxtail plant response rating [4, 22]: 0 | Plant response rating, Giant foxtail [4, 23]: 0 | Plant response rating, Giant foxtail [4, 24]: 0 | Giant foxtail plant response rating [4, 25]: 0 | Giant foxtail plant response rating [4, 26]: 0 | Giant foxtail plant response rating [4, 27]: 0 | Wheat plant response rating [5, 17]: 0 | Wheat plant response rating [5, 21]: 0 | Wheat plant response rating [5, 22]: 0 | Plant response rating, Wheat [5, 23]: 0 | Plant response rating, Wheat [5, 24]: 0 | Wheat plant response rating [5, 25]: 0 | Wheat plant response rating [5, 26]: 0 | Wheat plant response rating [5, 27]: 0 | Crabgrass plant response rating [6, 17]: 0 | Crabgrass plant response rating [6, 21]: 0 | Crabgrass plant response rating [6, 22]: 0 | Plant response rating, Crabgrass [6, 23]: 0 | Plant response rating, Crabgrass [6, 24]: 0 | Crabgrass plant response rating [6, 25]: 0 | Crabgrass plant response rating [6, 26]: 0 | Crabgrass plant response rating [6, 27]: 0 | Wild oats plant response rating [7, 17]: 0 | Wild oats plant response rating [7, 21]: 0 | Wild oats plant response rating [7, 22]: 0 | Plant response rating, Wild oats [7, 23]: 0 | Plant response rating, Wild oats [7, 24]: 0 | Wild oats plant response rating [7, 25]: 0 | Wild oats plant response rating [7, 26]: 0 | Wild oats plant response rating [7, 27]: 0 | Bedstraw plant response rating [8, 17]: 0 | Bedstraw plant response rating [8, 21]: 0 | Bedstraw plant response rating [8, 22]: 0 | Plant response rating, Bedstraw [8, 23]: 0 | Plant response rating, Bedstraw [8, 24]: 0 | Bedstraw plant response rating [8, 25]: 0 | Bedstraw plant response rating [8, 26]: 0 | Bedstraw plant response rating [8, 27]: 0 | Rice plant response rating [9, 17]: 0 | Rice plant response rating [9, 18]: 0 | Rice plant response rating [9, 19]: 0 | Rice plant response rating [9, 20]: 0 | Cocklebur plant response rating [10, 17]: 0 | Cocklebur plant response rating [10, 21]: 1 | Cocklebur plant response rating [10, 22]: 0 | Plant response rating, Cocklebur [10, 23]: 0 | Plant response rating, Cocklebur [10, 24]: 0 | Cocklebur plant response rating [10, 25]: 0 | Cocklebur plant response rating [10, 26]: 0 | Cocklebur plant response rating [10, 27]: 1 | Corn plant response rating [11, 17]: 0 | Corn plant response rating [11, 21]: 0 | Corn plant response rating [11, 22]: 0 | Plant response rating, Corn [11, 23]: 0 | Plant response rating, Corn [11, 24]: 0 | Corn plant response rating [11, 25]: 0 | Corn plant response rating [11, 26]: 0 | Corn plant response rating [11, 27]: 0 | Velvetleaf plant response rating [12, 17]: 0 | Velvetleaf plant response rating [12, 21]: 2 | Velvetleaf plant response rating [12, 22]: 0 | Plant response rating, Velvetleaf [12, 23]: 0 | Plant response rating, Velvetleaf [12, 24]: 0 | Velvetleaf plant response rating [12, 25]: 0 | Velvetleaf plant response rating [12, 26]: 2 | Velvetleaf plant response rating [12, 27]: 4 | S. Flatsedge plant response rating [13, 17]: 0 | S. Flatsedge plant response rating [13, 18]: 0 | S. Flatsedge plant response rating [13, 19]: 0 | S. Flatsedge plant response rating [13, 20]: 0 | Rape plant response rating [14, 17]: 0 | Rape plant response rating [14, 21]: 0 | Rape plant response rating [14, 22]: 0 | Plant response rating, Rape [14, 23]: 0 | Plant response rating, Rape [14, 24]: 0 | Rape plant response rating [14, 25]: 0 | Rape plant response rating [14, 26]: 0 | Rape plant response rating [14, 27]: 0 | Redroot pigweed plant response rating [15, 17]: 0 | Redroot pigweed plant response rating [15, 21]: 0 | Redroot pigweed plant response rating [15, 22]: 0 | Plant response rating, Redroot pigweed [15, 23]: 0 | Plant response rating, Redroot pigweed [15, 24]: 0 | Redroot pigweed plant response rating [15, 25]: 0 | Redroot pigweed plant response rating [15, 26]: 0 | Redroot pigweed plant response rating [15, 27]: 0 | Nutsedge plant response rating [16, 17]: 0 | Nutsedge plant response rating [16, 21]: 0 | Nutsedge plant response rating [16, 22]: 0 | Plant response rating, Nutsedge [16, 23]: 0 | Plant response rating, Nutsedge [16, 24]: 0 | Nutsedge plant response rating [16, 25]: 0 | Nutsedge plant response rating [16, 26]: 0 | Nutsedge plant response rating [16, 27]: 0
